These results are taken from publication PMC3775947 (Clinical lymphoma, myeloma & leukemia, 2013).

The test system of data set [1] is patients with AML. The settings on record: cited from earlier work; for Rates of response: LDAC or decitabine alone.
For data set [2] the following is noted: human, in vivo.
Data set [3] in a line: Plasma pharmacokinetics of barasertib, barasertib-hQPA and LDAC. The settings on record: for AUC0–EOI, barasertib-hQPA / AUC0–t, barasertib-hQPA / Css, barasertib-hQPA: geometric mean (CV%).
Setting [4] is: plasma, barasertib 800 mg + LDAC 400 mg, n=6.
The mark [5] stands for this setting: plasma, barasertib 1000 mg + LDAC 400 mg, n=13.
Where [6] appears, read: plasma, barasertib 1200 mg + LDAC 400 mg, n=3.

Molecules are shown by their SMILES. Read-outs that look alike come from different tables or passages of the source.

On to `Nc1ccn([C@@H]2O[C@H](CO)[C@@H](O)[C@@H]2O)c(=O)n1` [LDAC, cytosine arabinoside], for which, in data set [1] (LDAC monotherapy), the Infection frequency is 45%. The Rates of response in data set [1] is given as around 20%. Besides, the “AUC0–8 ratio, Day 7:Day10, LDAC” value in data set [2] (800 mg) was 1.1 (14.6) ng.h/mL; in data set [2] (1000 mg), 1.2 (24.2) ng.h/mL; in data set [2] (1200 mg) it was 0.79 (105.7) ng.h/mL. Also, in data set [2] (sc, 20 mg), the “Time of peak plasma concentrations (Cmax) post administration” value was in the range of 0.25 to 1 h. In addition, in data set [2] (sc, 20 mg), the “t½, monophasic elimination” value fell in the range of 1 to 2 h.

Take `Nc1ncn([C@H]2C[C@H](O)[C@@H](CO)O2)c(=O)n1` [decitabine]: in data set [1], the Rates of response is around 20%.

As to `CCN(CCO)CCCOc1ccc2c(Nc3cc(CC(=O)Nc4cccc(F)c4)[nH]n3)ncnc2c1` [Barasertib-hQPA, barasertib hydroxy-QPA], the “Steady-state plasma concentrations observed from, after start of infusion” value in data set [3] (7-day continuous iv infusion of barasertib, Day 1, maintained until EOI) is 24 h. In addition, in data set [3] (28-day cycles), the Accumulation result is recorded as “Minimal accumulation”. Further, the “Barasertib-hQPA exposure (AUC and Css) versus barasertib dose” value in data set [3] (800-1200 mg, trend, low patient numbers) was “increase more than proportionally”. Further, the “Clearance rate, geometric mean” value in data set [3] (barasertib 1000 mg cohort, range 23.4–43.3) amounted to 30.5 L/h. In addition, in data set [3] (barasertib 1000 mg cohort, range 509–1050), the “Volume of distribution at steady state, geometric mean” value came out at 713 L. The “Exposure to barasertib-hQPA during the infusion relative to that of barasertib” value in data set [3] (during 7-day infusion) was “approximately four-fold”. For the same compound, in data set [3] (following EOI, biphasic elimination), the “Terminal phase t½” value lay in the range of 3.5 to 4.5 days. Besides, in data set [3] (plasma, LLOQ 0.25 ng/mL), the “Detected in samples post EOI up to and including” value is at most 336 h. In addition, the “AUC0–EOI, barasertib-hQPA” value in data set [3] (setting [4]) is listed as 23240 (14.9) ng.h/mL; in data set [3] (setting [5]), 26860 (29.8) ng.h/mL; in data set [3] (setting [6]), 37510 (26.6) ng.h/mL. Further, the “AUC0–t, barasertib-hQPA” value in data set [3] (setting [4]) is 24040 (3.4) ng.h/mL; in data set [3] (setting [5]) it was 32840 (23.1) ng.h/mL; in data set [3] (setting [6]), 41850 (28.2) ng.h/mL. The “Css, barasertib-hQPA” value in data set [3] (setting [4]) is given as 147.3 (13.9) ng/mL; in data set [3] (setting [5]) it was 170.2 (27.4) ng/mL; in data set [3] (setting [6]), 249.2 (21.0) ng/mL.
